# Source: ChEMBL document CHEMBL1201862, “PubChem BioAssay data set” (2004)
# Calls of active or inactive are those of the source. Rule as the data show it, for most assays here: actives have a measured EC50 and inactives only a lower limit.
# Columns and labels:
# [1] = target: T1, Corticotropin-releasing factor receptor 2/Corticotropin-releasing factor-binding protein (Homo sapiens, UniProt P24387+Q13324); assay: Dose Response confirmation of uHTS hits for small molecule antagonists of the CRF-binding protein and CRF-R2 receptor complex.; type: functional; conditions: read-out: IC50_Mean
# T1 sequence (Q13324 whole entry): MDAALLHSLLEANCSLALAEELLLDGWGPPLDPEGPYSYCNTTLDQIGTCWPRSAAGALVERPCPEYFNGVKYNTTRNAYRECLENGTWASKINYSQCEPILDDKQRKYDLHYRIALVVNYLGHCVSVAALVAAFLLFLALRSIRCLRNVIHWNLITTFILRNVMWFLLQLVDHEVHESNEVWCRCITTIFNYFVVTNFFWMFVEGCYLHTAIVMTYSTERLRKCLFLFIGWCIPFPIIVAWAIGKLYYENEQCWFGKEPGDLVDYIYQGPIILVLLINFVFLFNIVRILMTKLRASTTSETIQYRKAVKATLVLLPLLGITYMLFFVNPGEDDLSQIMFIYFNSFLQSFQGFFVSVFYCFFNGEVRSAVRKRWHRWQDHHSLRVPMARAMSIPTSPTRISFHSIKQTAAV
# T1 sequence (P24387 whole entry): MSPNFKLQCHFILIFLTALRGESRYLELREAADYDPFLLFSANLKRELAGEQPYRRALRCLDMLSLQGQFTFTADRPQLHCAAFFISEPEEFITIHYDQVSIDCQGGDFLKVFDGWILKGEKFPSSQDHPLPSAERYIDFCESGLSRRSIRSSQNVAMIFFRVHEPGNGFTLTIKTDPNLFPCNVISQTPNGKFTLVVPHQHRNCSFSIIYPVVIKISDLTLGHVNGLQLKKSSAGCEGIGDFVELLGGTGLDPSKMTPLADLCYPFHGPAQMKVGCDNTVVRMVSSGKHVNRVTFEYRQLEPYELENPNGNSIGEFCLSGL
# [2] = target: T1, Corticotropin-releasing factor receptor 2/Corticotropin-releasing factor-binding protein; assay: activators of CRF receptor 2 with binding protein – uHTS hits, confirmation (AID 602473); type: functional; conditions: read-out: EC50_Mean
# [3] = target: T2, Rac GTPase-activating protein 1 (Homo sapiens, UniProt Q9H0H5); assay: blockers of MgcRacGAP-driven Rac1 GTP hydrolysis – biochemical, ADP Hunter fluorescence, primary and confirmatory, confirmation (AID 624330); type: functional
# T2 sequence (Q9H0H5 whole entry): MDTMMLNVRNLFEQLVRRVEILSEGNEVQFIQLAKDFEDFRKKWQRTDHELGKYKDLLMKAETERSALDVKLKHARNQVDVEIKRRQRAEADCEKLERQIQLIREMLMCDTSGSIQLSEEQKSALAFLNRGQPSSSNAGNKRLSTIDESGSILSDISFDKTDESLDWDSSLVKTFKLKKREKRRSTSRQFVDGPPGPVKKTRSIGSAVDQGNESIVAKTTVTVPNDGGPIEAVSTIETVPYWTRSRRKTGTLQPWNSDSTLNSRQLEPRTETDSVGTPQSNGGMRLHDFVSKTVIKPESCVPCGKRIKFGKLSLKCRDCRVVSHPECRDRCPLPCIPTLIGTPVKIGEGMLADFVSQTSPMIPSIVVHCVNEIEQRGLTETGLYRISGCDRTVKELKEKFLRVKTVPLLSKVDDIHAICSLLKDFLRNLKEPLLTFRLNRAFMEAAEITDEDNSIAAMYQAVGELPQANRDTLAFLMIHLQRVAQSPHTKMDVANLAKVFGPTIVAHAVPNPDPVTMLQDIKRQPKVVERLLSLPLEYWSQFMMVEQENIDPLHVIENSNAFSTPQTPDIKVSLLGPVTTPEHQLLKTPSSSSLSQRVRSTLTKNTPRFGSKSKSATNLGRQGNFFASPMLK
# [4] = fluconazole-exposed Candida albicans growth modulators – fluorescence, retest, confirmation (AID 2467); type: functional, cell-based
# [5] = NIH-3T3 fibroblast cytotoxicity, dose response, cytotoxicity control, cell-based, fluorescence, Alamar Blue, secondary assay (AID 2327); type: functional;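 also: NIH-3T3 mouse fibroblasts cultured with fluconazole at 8 µg/mL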
# [6] = Luminescence Cell-Based Dose Response HTS to Identify Activators of Luciferase Translation or Activity in H4 […] Cells. [Related pubchem assays: 1829 (Project Summary), 1814 (Primary HTS)]; type: functional
# [7] = test system: H4; assay: Luminescence Cell-Based Dose Response HTS to Identify Activators of 5'UTR Stem-Loop Driven Prion Protein mRNA Translation in H4 Neuroglioblastoma Cells. [Related pubchem assays: 1829 (Project Summary), 1814 (Primary HTS)]; type: functional; conditions: Homo sapiens
# [8] = Trypanosoma cruzi growth suppression in host cells – NIH3T3 host cells, beta-gal luminescence, confirmation (AID 2044); type: functional, cell-based;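 also: intracellular parasites grown in NIH/3T3 mouse fibroblasts as host cells; luminescent beta-galactosidase reporter signal from transgenic T. cruzi replicating inside host cells; inhibitors lower the luminescence signal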
# [9] = test system: INS1; assay: INS-1E survival protection against cytokine death – cell-based, luminescence, retest, dose response (AID 449756); type: functional; conditions: Rattus norvegicus;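 also: cell death triggered by IL-1 beta plus TNF-alpha plus IFN-gamma mixture; protective hits raise ATP signal compared with cytokine alone wells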
# [10] = NIH3T3 cell viability loss – ATP luminescence, mouse fibroblasts, counter-screen, dose response (AID 2010); type: functional, cell-based;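 also: cells exposed to compound for about 90 hours before reading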
# [11] = test system: Streptococcus; assay: GAS UMAA2166 growth inhibition – luminescence, BacTiterGlo, counter-screen for streptokinase expression inhibitor project, dose response (AID 1915); type: functional, organism-based;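 also: potency for reduction of bacterial viability or growth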
# [12] = test system: Streptococcus sp. 'group A'; assay: Streptococcus pyogenes SK(-)GAS viability under kanamycin – luminescence, BacTiterGlo, confirmation, counter-screen for streptokinase expression inhibitor project, dose response (AID 1900); type: functional, organism-based
compound,measurement,setting,value
CCc1ccc2[nH]c(C(=O)Nc3ccc4c(c3)OCO4)cc2c1,IC50,[1],> 47.1 µM (inactive)
same,EC50,[2],> 53 µM (inactive)
O=C(NCCS(=O)(=O)c1ccc(Br)cc1)c1ccccc1Cl,IC50,[1],> 47.1 µM (inactive)
same,EC50,[2],> 53 µM (inactive)
COc1ccccc1OCCCCCCN1CCOCC1,IC50,[3],184 µM (active)
COc1cc(/C=N/NC(=O)CCc2nnc(O)nc2O)ccc1O,IC50,[3],32.5 µM (active)
COc1ccc2c(c1)c(/C=C/c1cc[n+](C)cc1)cn2C,EC50,[4],2.23 µM (active)
same,EC50,[5],> 160 µM (inactive)
O=C(NCCc1c[nH]c2ccccc12)c1cnc2sccn2c1=O,EC50,[6],53 µM (active)
same,EC50,[7],54.8 µM (inconclusive)
COc1cc(/C=N/NC(=O)c2ccc(-n3cccc3)cc2)ccc1O,IC50,[3],23.9 µM (active)
Cc1ccc(/C=N/Nc2ccnc3cc(Cl)ccc23)c(C)c1,EC50,[8],0.672 µM (active)
same,AC50,[9],6.15 µM (active)
same,EC50,[10],> 60 µM (not active)
O=C(NCC1CCCO1)C1CCCN1C(=O)NC1CCCCC1 (configuration not stated),IC50,[1],> 47.1 µM (inactive)
same,EC50,[2],> 53 µM (inactive)
CNS(=O)(=O)c1cccc(C(=O)NCC(c2ccco2)N(C)C)c1 (configuration not stated),IC50,[1],> 47.1 µM (inactive)
same,EC50,[2],> 53 µM (inactive)
COc1ccc(C(=O)NC(=S)NNC(=O)c2ccccc2O)cc1,EC50,[11],8.79 µM (active)
same,EC50,[2],> 53 µM (inactive)
same,EC50,[12],2.7 µM (active)
CC(=C/c1ccccc1)/C=N/n1c(S)nnc1-c1ccco1,IC50,[3],86.4 µM (active)
COc1cc(C(=O)NC2CC(C)(C)Cc3c2cnn3-c2ccccc2)cc(OC)c1OC (configuration not stated),IC50,[1],> 47.1 µM (inactive)
same,EC50,[2],> 53 µM (inactive)
Cc1cc(C)nc(NS(=O)(=O)c2ccc(NC(=O)COc3ccccc3)cc2)n1,EC50,[4],> 38 µM (not active)
same,EC50,[5],> 150 µM (inactive)
COc1ccc(CN2CCN(Cc3cccc(F)c3)CC2)cc1OC,IC50,[3],83 µM (active)
Nc1c2c(nc3sc4c(c13)CCCCC4)CCCCC2,EC50,[4],3.83 µM (active)
same,EC50,[5],> 160 µM (inconclusive)
Cc1ccc(-n2nc(C)c(Sc3ccccc3[N+](=O)[O-])c2N)cc1,IC50,[1],> 47.1 µM (inactive)
same,EC50,[2],> 53 µM (inactive)
O=C1NCCCCC1NS(=O)(=O)c1cccc2ccccc12 (configuration not stated),IC50,[1],> 47.1 µM (inactive)
same,EC50,[2],> 53 µM (inactive)
COc1ccc(CCC(=O)N2CC(C)OC(C)C2)cc1 (configuration not stated),EC50,[4],> 38 µM (not active)
same,EC50,[5],> 150 µM (inactive)
CCc1cccc(NC(=S)N(CCCN2CCOCC2)C(C)c2cc3cccc(OC)c3o2)c1 (configuration not stated),IC50,[1],> 47.1 µM (inactive)
same,EC50,[2],> 53 µM (inactive)
